Reference: patent publication US20230085307A1, “PYRIDAZINONE COMPOUND AND HERBICIDE” (NISSAN CHEMICAL CORPORATION, priority 2019, published 2023)

Tests used:
[1] = tested on: barnyard grass; assay: Test Example 3: herbicidal effect by foliage application, Wagner pot (Table 18, symbol H); assay type: in vivo, barnyard grass (Echinochloa crus-galli)
Procedure, shortened: (§1)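 Plants were sown in alluvial soil held under 0.1–0.5 cm standing water and grown 14 days in a greenhouse at 25–30 °C. An emulsifiable formulation, water-diluted to the set dose, was then sprayed onto the foliage, and effects were scored three weeks later using previously defined criteria.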

[2] = tested on: Chinese sprangletop; assay: Test Example 3: herbicidal effect by foliage application, Wagner pot (Table 18, symbol D); assay type: in vivo, chinese sprangletop (Leptochloa chinensis)
Procedure, shortened: as §1

[3] = tested on: rice flat sedge; assay: Test Example 3: herbicidal effect by foliage application, Wagner pot (Table 18, symbol E); assay type: in vivo, rice flat sedge (Cyperus iria)
Procedure, shortened: as §1

[4] = tested on: southern crabgrass; assay: Test Example 4: herbicidal effect by soil treatment (Table 19, symbol F); assay type: in vivo, southern crabgrass (Digitaria ciliaris); details: amount of applied herbicide 320 g/ha
Procedure, shortened: (§2)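 In this soil treatment, the formulated compound reached the seeds only through the soil: seeds were buried about 1.5 cm deep in sterilized diluvial soil, then the diluted emulsion was sprayed over the surface. After three weeks at 25° C. to 30° C. in a greenhouse, effects were graded on criteria from an earlier test.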

[5] = tested on: green foxtail; assay: Test Example 4: herbicidal effect by soil treatment (Table 19, symbol G); assay type: in vivo, green foxtail (Setaria viridis); details: amount of applied herbicide 320 g/ha
Procedure, shortened: as §2

[6] = tested on: barnyard grass; assay: Test Example 4: herbicidal effect by soil treatment (Table 19, symbol H); assay type: in vivo, barnyard grass (Echinochloa crus-galli); details: amount of applied herbicide 320 g/ha
Procedure, shortened: as §2

[7] = tested on: wild oat; assay: Test Example 4: herbicidal effect by soil treatment (Table 19, symbol I); assay type: in vivo, wild oat (Avena fatua); details: amount of applied herbicide 320 g/ha
Procedure, shortened: as §2

[8] = tested on: blackgrass; assay: Test Example 4: herbicidal effect by soil treatment (Table 19, symbol J); assay type: in vivo, blackgrass (Alopecurus myosuroides); details: amount of applied herbicide 320 g/ha
Procedure, shortened: as §2

[9] = tested on: Italian ryegrass; assay: Test Example 4: herbicidal effect by soil treatment (Table 19, symbol K); assay type: in vivo, Italian ryegrass (Lolium multiflorum); details: amount of applied herbicide 320 g/ha
Procedure, shortened: as §2

[10] = tested on: windgrass; assay: Test Example 4: herbicidal effect by soil treatment (Table 19, symbol L); assay type: in vivo, windgrass (Apera spica-venti); details: amount of applied herbicide 320 g/ha
Procedure, shortened: as §2

[11] = tested on: velvetleaf; assay: Test Example 4: herbicidal effect by soil treatment (Table 19, symbol M); assay type: in vivo, velvetleaf (Abutilon theophrasti); details: amount of applied herbicide 320 g/ha
Procedure, shortened: as §2

[12] = tested on: redroot pigweed; assay: Test Example 4: herbicidal effect by soil treatment (Table 19, symbol N); assay type: in vivo, redroot pigweed (Amaranthus retroflexus); details: amount of applied herbicide 320 g/ha
Procedure, shortened: as §2

[13] = tested on: lambsquarters; assay: Test Example 4: herbicidal effect by soil treatment (Table 19, symbol O); assay type: in vivo, lambsquarters (Chenopodium album); details: amount of applied herbicide 320 g/ha
Procedure, shortened: as §2

[14] = tested on: chickweed; assay: Test Example 4: herbicidal effect by soil treatment (Table 19, symbol P); assay type: in vivo, common chickweed (Stellaria media); details: amount of applied herbicide 320 g/ha
Procedure, shortened: as §2

[15] = tested on: persian speedwell; assay: Test Example 4: herbicidal effect by soil treatment (Table 19, symbol R); assay type: in vivo, Persian speedwell (Veronica persica); details: amount of applied herbicide 320 g/ha
Procedure, shortened: as §2

[16] = tested on: southern crabgrass; assay: Test Example 5: herbicidal effect by foliage application, plastic box (Table 20, symbol F); assay type: in vivo, southern crabgrass (Digitaria ciliaris)
Procedure, shortened: (§3)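 Plants were sown into sterilized diluvial soil under about 1.5 cm cover and kept in a greenhouse at 25° C. to 30° C. Fourteen days on, foliage received an even spray of the diluted emulsion. Herbicidal or crop effect was judged three weeks afterwards.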

[17] = tested on: green foxtail; assay: Test Example 5: herbicidal effect by foliage application, plastic box (Table 20, symbol G); assay type: in vivo, green foxtail (Setaria viridis)
Procedure, shortened: as §3

[18] = tested on: barnyard grass; assay: Test Example 5: herbicidal effect by foliage application, plastic box (Table 20, symbol H); assay type: in vivo, barnyard grass (Echinochloa crus-galli)
Procedure, shortened: as §3

[19] = tested on: wild oat; assay: Test Example 5: herbicidal effect by foliage application, plastic box (Table 20, symbol I); assay type: in vivo, wild oat (Avena fatua)
Procedure, shortened: as §3

[20] = tested on: blackgrass; assay: Test Example 5: herbicidal effect by foliage application, plastic box (Table 20, symbol J); assay type: in vivo, blackgrass (Alopecurus myosuroides)
Procedure, shortened: as §3

[21] = tested on: Italian ryegrass; assay: Test Example 5: herbicidal effect by foliage application, plastic box (Table 20, symbol K); assay type: in vivo, Italian ryegrass (Lolium multiflorum)
Procedure, shortened: as §3

[22] = tested on: windgrass; assay: Test Example 5: herbicidal effect by foliage application, plastic box (Table 20, symbol L); assay type: in vivo, windgrass (Apera spica-venti)
Procedure, shortened: as §3

[23] = tested on: velvetleaf; assay: Test Example 5: herbicidal effect by foliage application, plastic box (Table 20, symbol M); assay type: in vivo, velvetleaf (Abutilon theophrasti)
Procedure, shortened: as §3

[24] = tested on: redroot pigweed; assay: Test Example 5: herbicidal effect by foliage application, plastic box (Table 20, symbol N); assay type: in vivo, redroot pigweed (Amaranthus retroflexus)
Procedure, shortened: as §3

[25] = tested on: lambsquarters; assay: Test Example 5: herbicidal effect by foliage application, plastic box (Table 20, symbol O); assay type: in vivo, lambsquarters (Chenopodium album)
Procedure, shortened: as §3

[26] = tested on: chickweed; assay: Test Example 5: herbicidal effect by foliage application, plastic box (Table 20, symbol P); assay type: in vivo, common chickweed (Stellaria media)
Procedure, shortened: as §3

[27] = tested on: persian speedwell; assay: Test Example 5: herbicidal effect by foliage application, plastic box (Table 20, symbol R); assay type: in vivo, Persian speedwell (Veronica persica)
Procedure, shortened: as §3

[28] = amount of applied herbicide 320 g/ha
[29] = foliage application, 320 g/ha, three weeks after application
[30] = amount of applied herbicide 320 g/ha, foliage application after 14-day growth, evaluated three weeks after application

Compound: CCc1nn(C)c(=O)c(-c2c(-c3ccc(Cl)cc3)sc3ccc(F)cc23)c1O [2-408]
- herbicidal effect on H: barnyard grass [1, 28]: 4 (Herbicidal rate of 70% or more and less than 90%)
- herbicidal effect on D: Chinese sprangletop [2, 28]: 4 (Herbicidal rate of 70% or more and less than 90%)
- herbicidal effect on E: rice flat sedge [3, 28]: 5 (Herbicidal rate of 90% or more (almost completely withered))
- herbicidal effect, F: southern crabgrass [4]: 0 (Herbicidal rate of 5% or less (almost no effect))
- herbicidal effect, G: green foxtail [5]: 0 (Herbicidal rate of 5% or less (almost no effect))
- herbicidal effect, H: barnyard grass [6]: 0 (Herbicidal rate of 5% or less (almost no effect))
- herbicidal effect, I: wild oat [7]: 0 (Herbicidal rate of 5% or less (almost no effect))
- herbicidal effect, J: blackgrass [8]: 0 (Herbicidal rate of 5% or less (almost no effect))
- herbicidal effect, K: Italian ryegrass [9]: 0 (Herbicidal rate of 5% or less (almost no effect))
- herbicidal effect, L: windgrass [10]: 0 (Herbicidal rate of 5% or less (almost no effect))
- herbicidal effect, M: velvetleaf [11]: 1 (Herbicidal rate of 5% or more and less than 20%)
- herbicidal effect, N: redroot pigweed [12]: 4 (Herbicidal rate of 70% or more and less than 90%)
- herbicidal effect, O: lambsquarters [13]: 3 (Herbicidal rate of 40% or more and less than 70%)
- herbicidal effect, P: chickweed [14]: 0 (Herbicidal rate of 5% or less (almost no effect))
- herbicidal effect, R: persian speedwell [15]: 0 (Herbicidal rate of 5% or less (almost no effect))
- F: southern crabgrass, herbicidal effect grade [16, 29]: 4 (Herbicidal rate of 70% or more and less than 90%)
- G: green foxtail, herbicidal effect grade [17, 29]: 5 (Herbicidal rate of 90% or more (almost completely withered))
- H: barnyard grass, herbicidal effect grade [18, 29]: 3 (Herbicidal rate of 40% or more and less than 70%)
- I: wild oat, herbicidal effect grade [19, 29]: 1 (Herbicidal rate of 5% or more and less than 20%)
- J: blackgrass, herbicidal effect grade [20, 29]: 0 (Herbicidal rate of 5% or less (almost no effect))
- K: Italian ryegrass, herbicidal effect grade [21, 29]: 3 (Herbicidal rate of 40% or more and less than 70%)
- L: windgrass, herbicidal effect grade [22, 29]: 0 (Herbicidal rate of 5% or less (almost no effect))
- M: velvetleaf, herbicidal effect grade [23, 29]: 4 (Herbicidal rate of 70% or more and less than 90%)
- N: redroot pigweed, herbicidal effect grade [24, 29]: 5 (Herbicidal rate of 90% or more (almost completely withered))
- O: lambsquarters, herbicidal effect grade [25, 29]: 5 (Herbicidal rate of 90% or more (almost completely withered))
- P: chickweed, herbicidal effect grade [26, 29]: 5 (Herbicidal rate of 90% or more (almost completely withered))
- R: persian speedwell, herbicidal effect grade [27, 29]: 5 (Herbicidal rate of 90% or more (almost completely withered))

Compound: Cc1ccc(-c2sc3cc(F)c(F)cc3c2-c2c(O)c(C)nn(C)c2=O)cc1 [5-003]
- herbicidal effect on barnyard grass (H) ([1]; 320 g/ha): 3 (Herbicidal rate of 40% or more and less than 70%)
- herbicidal effect on Chinese sprangletop (D) ([2]; 320 g/ha): 3 (Herbicidal rate of 40% or more and less than 70%)
- herbicidal effect on rice flat sedge (E) ([3]; 320 g/ha): 5 (Herbicidal rate of 90% or more (almost completely withered))
- F: southern crabgrass, herbicidal effect grade [4]: 1 (Herbicidal rate of 5% or more and less than 20%)
- G: green foxtail, herbicidal effect grade [5]: 4 (Herbicidal rate of 70% or more and less than 90%)
- H: barnyard grass, herbicidal effect grade [6]: 3 (Herbicidal rate of 40% or more and less than 70%)
- I: wild oat, herbicidal effect grade [7]: 0 (Herbicidal rate of 5% or less (almost no effect))
- J: blackgrass, herbicidal effect grade [8]: 0 (Herbicidal rate of 5% or less (almost no effect))
- K: Italian ryegrass, herbicidal effect grade [9]: 0 (Herbicidal rate of 5% or less (almost no effect))
- L: windgrass, herbicidal effect grade [10]: 0 (Herbicidal rate of 5% or less (almost no effect))
- M: velvetleaf, herbicidal effect grade [11]: 2 (Herbicidal rate of 20% or more and less than 40%)
- N: redroot pigweed, herbicidal effect grade [12]: 3 (Herbicidal rate of 40% or more and less than 70%)
- O: lambsquarters, herbicidal effect grade [13]: 5 (Herbicidal rate of 90% or more (almost completely withered))
- P: chickweed, herbicidal effect grade [14]: 4 (Herbicidal rate of 70% or more and less than 90%)
- R: persian speedwell, herbicidal effect grade [15]: 4 (Herbicidal rate of 70% or more and less than 90%)
- Herbicidal effect by foliage application, F: southern crabgrass [16, 30]: 0 (Herbicidal rate of 5% or less (almost no effect))
- Herbicidal effect by foliage application, G: green foxtail [17, 30]: 2 (Herbicidal rate of 20% or more and less than 40%)
- Herbicidal effect by foliage application, H: barnyard grass [18, 30]: 0 (Herbicidal rate of 5% or less (almost no effect))
- Herbicidal effect by foliage application, I: wild oat [19, 30]: 0 (Herbicidal rate of 5% or less (almost no effect))
- Herbicidal effect by foliage application, J: blackgrass [20, 30]: 0 (Herbicidal rate of 5% or less (almost no effect))
- Herbicidal effect by foliage application, K: Italian ryegrass [21, 30]: 2 (Herbicidal rate of 20% or more and less than 40%)
- Herbicidal effect by foliage application, L: windgrass [22, 30]: 0 (Herbicidal rate of 5% or less (almost no effect))
- Herbicidal effect by foliage application, M: velvetleaf [23, 30]: 5 (Herbicidal rate of 90% or more (almost completely withered))
- Herbicidal effect by foliage application, N: redroot pigweed [24, 30]: 5 (Herbicidal rate of 90% or more (almost completely withered))
- Herbicidal effect by foliage application, O: lambsquarters [25, 30]: 5 (Herbicidal rate of 90% or more (almost completely withered))
- Herbicidal effect by foliage application, P: chickweed [26, 30]: 5 (Herbicidal rate of 90% or more (almost completely withered))
- Herbicidal effect by foliage application, R: persian speedwell [27, 30]: 5 (Herbicidal rate of 90% or more (almost completely withered))
